This is an account of results in US20250188082A1, “Use of Hypoxanthine Compound In Preparation of Drug For Treating Pulmonary Fibrosis” (Sichuan Yiasuo Pharmaceutical Technology Co., Ltd., priority 2022, published 2025).

Holding throughout (assay type): in vivo, C57BL/6 mice
For test [1], the system named is coronavirus-induced pulmonary fibrosis model (HcoV-OC43). Put plainly: Coronavirus-induced pulmonary fibrosis model. Conditions: 120 mg/kg/d intragastric, 14 days; for Ashcroft scores: coronavirus HcoV-OC43 + bleomycin, lung tissue HE; for IL-1β / IL-6 / NF-κB / TNF-α: serum, HcoV-OC43 + bleomycin, from two weeks after model. The text has this:
Experimental method: an in-vivo coronavirus-induced pulmonary fibrosis model mice was established: C57BL/6 mice (with weights being 22-25 g) were randomly and evenly divided into a plurality of groups, including blank control group, model group, Nintedanib positive control group, hypoxanthine analogue A group, hypoxanthine analogue B group, hypoxanthine analogue C group, compound 1 group, compound 2 group . . . compound 12 group, with 9 mice in each group. On Day 1, the mice in the blank control group were instilled with normal saline nasally, and the mice in other groups were all infected with HcoV-OC43 coronavirus strains (30 μL) through nasal instillation. On Day 2, the mice received 5 mg/kg bleomycin through tracheas to induce their pulmonary fibrosis. After the model was established for two weeks, the mice in each group were intragastrically administrated for intervention for consecutive 14 days; the mice in blank control group and model group intragastrically received the same dosage of the normal saline as those in drug groups; the mice in Nintedanib positive control group received Nintedanib (120 mg/kg); the mice in hypoxanthine analogue A group, hypoxanthine analogue B group and hypoxanthine analogue C group respectively received hypoxanthine analogue A (120 mg/kg/d), hypoxanthine analogue B (120 mg/kg/d) and hypoxanthine analogue C (120 mg/kg/d); and the mice in compound 1 group, compound 2 group . . . compound 12 group respectively received compound 1 (120 mg/kg/d), compound 2 (120 mg/kg/d) . . . compound 12 (120 mg/kg/d) prepared in example 1. After administration for consecutive 14 days, the mice were observed every day, and their weights and death conditions were recorded. After administration, blood was taken from eyeballs for immediately detecting the expression levels of NF-κB, TNF-α, IL-1 and IL-6 in serum, and lung tissues were taken for HE detection and Ashcroft scoring.

For test [2], the system named is novel coronavirus-induced pulmonary fibrosis model (COVID-19 novel coronavirus strains). The test is described as follows: Novel coronavirus-induced pulmonary fibrosis model. Particulars: 120 mg/kg/d intragastric, 14 days; for Ashcroft scores: novel coronavirus + bleomycin, lung tissue HE; for IL-1β / NF-κB / TNF-α / IL-6: serum, COVID-19 novel coronavirus + bleomycin, from two weeks after model. The text has this:
Experimental method: an in-vivo novel coronavirus-induced pulmonary fibrosis model was established: C57BL/6 mice (with weights being 22-25 g) were randomly and evenly divided into a plurality of groups, including blank control group, model group, Nintedanib positive control group, hypoxanthine analogue A group, hypoxanthine analogue B group, hypoxanthine analogue C group, compound 1 group, a compound 2 group . . . compound 12 group, with 9 mice in each group. On Day 1, the mice in blank control group were instilled with normal saline nasally, and the mice in other groups were all infected with COVID-19 novel coronavirus strains (30 μL) through nasal instillation. On Day 2, the mice received 5 mg/kg bleomycin through tracheas to induce their pulmonary fibrosis. After the model was established for two weeks, the mice in each group were intragastrically administrated for intervention for consecutive 14 days; the mice in blank control group and model group intragastrically received the same dosage of normal saline as those in drug groups; the mice in Nintedanib positive control group received Nintedanib (120 mg/kg); the mice in hypoxanthine analogue A group, hypoxanthine analogue B group and hypoxanthine analogue C group respectively received hypoxanthine analogue A (120 mg/kg/d), hypoxanthine analogue B (120 mg/kg/d) and hypoxanthine analogue C (120 mg/kg/d); and the mice in compound 1 group, compound 2 group . . . compound 12 group respectively received compound 1 (120 mg/kg/d), compound 2 (120 mg/kg/d) . . . compound 12 (120 mg/kg/d) prepared in example 1. After administration for consecutive 14 days, the mice were observed every day, and their weights and death conditions were recorded. After administration, blood was taken from eyeballs for immediately detecting the expression levels of NF-κB, TNF-α, IL-1 and IL-6 in serum, and lung tissues were taken for HE detection and Ashcroft scoring.

The test system of test [3] is influenza B virus-induced pulmonary fibrosis model (influenza B (H7N9) virus). Particulars: 120 mg/kg/d intragastric, 14 days; for Ashcroft scores: influenza B virus + bleomycin, lung tissue HE; for IL-1β / NF-κB / TNF-α / IL-6: serum, from two weeks after model; for IL-1β / NF-κB / TNF-α: influenza B (H7N9) + bleomycin; for IL-6: influenza B + bleomycin.
Test [4] relates to bleomycin-induced pulmonary fibrosis model. Put plainly: Early pulmonary fibrosis: bleomycin-induced model, dosing from one week after modelling. Conditions: for Leucocyte / Lymphocyte / Neutrophil / Ashcroft scores: early pulmonary fibrosis, 120 mg/kg/d intragastric, 14 days, from one week after model; for Leucocyte / Lymphocyte / Neutrophil: blood, Day 15, twice every day; for Ashcroft scores: lung tissue HE staining; for inhibition (anti-inflammatory) effect on leucocytes, neutrophils and lymphocytes in blood: mice with early pulmonary fibrosis, result in words.

For test [5] the test system is unchanged. The test is described as follows: Comparison with comparative drugs: bleomycin-induced model, hydroxyproline and TGF-β. Particulars: 120 mg/kg/d intragastric, twice every day, 14 days, from two weeks after model; Day 15.

Structures are written as SMILES.

On to `CC(=O)Oc1ncnc2c1ncn2C(C)C` [Compound 11], for which, in test [1], the Ashcroft scores turned out to be 1.29, the IL-1β was determined as 35.4 pg/mL, the IL-6 was 63.3 pg/mL and the NF-κB was 25.1 pg/mL. Also, the TNF-α in test [1] was determined as 52.1 pg/mL. Also, in test [2], the Ashcroft scores was found to be 1.31, the IL-1β was 37.2 pg/mL, the NF-κB was found to be 26.7 pg/mL and the TNF-α was determined as 69.0 pg/mL. For the same compound, in test [3], the Ashcroft scores came out at 1.15, the IL-1β worked out at 26.8 pg/mL, the NF-κB stood at 31.6 pg/mL and the TNF-α came out at 73.5 pg/mL. Moreover, the IL-6 in test [3] turned out to be 65.3 pg/mL. In test [4], the Leucocyte is 4.09 10^9/L, the Lymphocyte is given as 5.20 10^9/L, the Neutrophil is on record as 1.10 10^9/L and the Ashcroft scores is given as 1.08. Besides, in test [5], the “Hydroxyproline in bronchoalveolar lavage fluids” value came out at 0.75 ± 0.05 µg/mg, the “Hydroxyproline in lung tissues” value was determined as 1.43 ± 0.11 µg/mg, the “TGF-β in bronchoalveolar lavage fluids” value came to 4.02 ± 0.15 µg/L and the “TGF-β in lung tissues” value came to 23.98 ± 2.19 µg/L.
Take `CCC(=O)Oc1ncnc2c1ncn2C(C)C` [Compound 12]: in test [1], the Ashcroft scores was 1.37, the IL-1β is on record as 35.8 pg/mL, the IL-6 was found to be 66.5 pg/mL and the NF-κB is 27.7 pg/mL. Further, in test [1], the TNF-α worked out at 54.4 pg/mL. Further, in test [2], the Ashcroft scores was 1.18, the IL-1β is recorded as 38.9 pg/mL, the IL-6 is on record as 66.8 pg/mL and the NF-κB came to 27.3 pg/mL. In addition, in test [2], the TNF-α turned out to be 68.4 pg/mL. In test [3], the Ashcroft scores is 1.26, the IL-1β was determined as 27.8 pg/mL, the NF-κB was 32.9 pg/mL and the TNF-α was found to be 75.4 pg/mL. Also, in test [3], the IL-6 is 69.7 pg/mL. Further, in test [4], the Leucocyte is recorded as 4.21 10^9/L, the Lymphocyte is reported as 5.24 10^9/L, the Neutrophil is 1.18 10^9/L and the Ashcroft scores is listed as 1.14. Moreover, in test [5], the “Hydroxyproline in bronchoalveolar lavage fluids” value amounted to 0.76 ± 0.08 µg/mg, the “Hydroxyproline in lung tissues” value was found to be 1.41 ± 0.12 µg/mg, the “TGF-β in bronchoalveolar lavage fluids” value came out at 4.06 ± 0.15 µg/L and the “TGF-β in lung tissues” value turned out to be 23.91 ± 2.38 µg/L.
In the case of `O=c1[nH]cnc2[nH]cnc12` [Hypoxanthine analogue A, reference compound], in test [1], the Ashcroft scores is recorded as 6.23, the IL-1β is recorded as 688.8 pg/mL, the IL-6 is on record as 519.4 pg/mL and the NF-κB came out at 719.1 pg/mL. The TNF-α in test [1] is 450.7 pg/mL. In test [2], the Ashcroft scores was 6.13, the IL-1β is given as 489.0 pg/mL, the IL-6 was found to be 554.5 pg/mL and the NF-κB was found to be 731.3 pg/mL. Besides, in test [2], the TNF-α was determined as 400.5 pg/mL. In test [3], the Ashcroft scores was 6.26, the IL-1β amounted to 239.9 pg/mL, the NF-κB turned out to be 630.5 pg/mL and the TNF-α was found to be 191.3 pg/mL. Further, in test [3], the IL-6 is given as 194.8 pg/mL. Further, in test [4], the Leucocyte is 52.12 10^9/L, the Lymphocyte is 49.53 10^9/L, the Neutrophil is recorded as 41.21 10^9/L and the Ashcroft scores turned out to be 5.00. Further, the “inhibition (anti-inflammatory) effect on leucocytes, neutrophils and lymphocytes in blood” value in test [4] was “obviously inferior”. Besides, in test [5], the “Hydroxyproline in bronchoalveolar lavage fluids” value was determined as 1.46 ± 0.13 µg/mg, the “Hydroxyproline in lung tissues” value was 2.69 ± 0.12 µg/mg, the “TGF-β in bronchoalveolar lavage fluids” value was 9.23 ± 0.26 µg/L and the “TGF-β in lung tissues” value was 96.47 ± 8.25 µg/L.
For the compound `CC(C)Oc1ncnc2c1ncn2C` [Hypoxanthine analogue B, reference compound], in test [1], the Ashcroft scores worked out at 6.12, the IL-1β came to 560.6 pg/mL, the IL-6 is 522.2 pg/mL and the NF-κB is listed as 730.1 pg/mL. Also, the TNF-α in test [1] is 454.4 pg/mL. Also, in test [2], the Ashcroft scores is given as 6.38, the IL-1β worked out at 491.8 pg/mL, the IL-6 is given as 552.3 pg/mL and the NF-κB stood at 741.1 pg/mL. Also, the TNF-α in test [2] is reported as 401.9 pg/mL. In test [3], the Ashcroft scores amounted to 6.21, the IL-1β was determined as 240.6 pg/mL, the NF-κB stood at 627.1 pg/mL and the TNF-α is on record as 190.2 pg/mL. The IL-6 in test [3] is reported as 193.1 pg/mL. For the same compound, in test [4], the Leucocyte is 49.97 10^9/L; the Neutrophil is 36.88 10^9/L; the Ashcroft scores is given as 5.39; the “inhibition (anti-inflammatory) effect on leucocytes, neutrophils and lymphocytes in blood” value is “obviously inferior”. Besides, in test [5], the “Hydroxyproline in bronchoalveolar lavage fluids” value is 1.81 ± 0.14 µg/mg, the “Hydroxyproline in lung tissues” value was 2.97 ± 0.19 µg/mg, the “TGF-β in bronchoalveolar lavage fluids” value was determined as 8.95 ± 0.68 µg/L and the “TGF-β in lung tissues” value is 91.53 ± 9.56 µg/L.
